Values of other authors, collected in patent US5196203A, “Theophylline dosage form” (priority 1989, dated 1993).

Cn1c(=O)c2[nH]cnc2n(C)c1=O [Theophylline, 1,3-dimethylxanthine]
Effect at plasma concentrations above 20 mg/L: often associated with theophylline toxicity
